Source: patent US20050096360A1, “Inhibitors of semicarbazide-sensitive amine oxidase (SSAO) and VAP-1 mediated adhesion useful for treatment of diseases” (priority 2003, published 2005)
Where a name gives a salt, the structure may show the parent alone.

Experiments:
[1] = molecular target: T1, SSAO activity in rat aorta and lung (Rattus norvegicus, UniProt O08590); test: In vivo inhibition of SSAO after single oral dose, radioactive assay; conditions: 4 hrs after treatment
T1 construct: the animals were euthanized and their aortas and lungs removed and frozen in liquid nitrogen; from tissue; host or cells: aorta and lung of female Sprague Dawley rats
T1 sequence (O08590 1-763): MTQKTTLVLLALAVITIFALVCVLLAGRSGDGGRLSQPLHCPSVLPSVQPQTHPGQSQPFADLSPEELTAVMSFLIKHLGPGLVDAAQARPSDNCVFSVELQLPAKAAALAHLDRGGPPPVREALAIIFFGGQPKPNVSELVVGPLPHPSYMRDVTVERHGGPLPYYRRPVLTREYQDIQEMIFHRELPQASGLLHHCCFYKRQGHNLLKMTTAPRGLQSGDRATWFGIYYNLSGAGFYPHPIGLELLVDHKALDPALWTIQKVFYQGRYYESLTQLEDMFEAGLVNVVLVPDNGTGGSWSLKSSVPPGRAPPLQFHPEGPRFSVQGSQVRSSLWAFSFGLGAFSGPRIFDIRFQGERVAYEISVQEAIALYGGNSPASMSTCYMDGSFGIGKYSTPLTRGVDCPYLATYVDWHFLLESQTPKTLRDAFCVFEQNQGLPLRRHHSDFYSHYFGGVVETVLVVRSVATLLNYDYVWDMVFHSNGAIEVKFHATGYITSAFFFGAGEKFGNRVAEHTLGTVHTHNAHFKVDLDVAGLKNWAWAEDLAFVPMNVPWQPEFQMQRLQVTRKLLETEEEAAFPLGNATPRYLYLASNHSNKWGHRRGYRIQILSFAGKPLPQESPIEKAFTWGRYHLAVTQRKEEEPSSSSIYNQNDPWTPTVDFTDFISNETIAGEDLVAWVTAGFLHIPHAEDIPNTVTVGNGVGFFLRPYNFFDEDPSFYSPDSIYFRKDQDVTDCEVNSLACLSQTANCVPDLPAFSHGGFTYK
Procedure: In vivo inhibition of SSAO was assessed in rat aorta and lungs, two of the tissues where SSAO activity is highest. Six week old female Sprague Dawley rats were administered 0, 0.1, 1, 10 and 50 mg/kg of the compound of example 8 in 2.5 ml/kg PBS by oral gavage. Four hours after compound administration the animals were euthanized and their aortas and lungs removed and frozen in liquid nitrogen. Tissues were homogenized in 0.1 M potassium phosphate pH 7.8 buffer (30 ml/g for aorta and 20 ml/g for lung) and centrifuged at 1000×g for 15 min. Supernatants were collected and used in the radioactive assay following the protocol described by Lizcano J. M. et al. (1998) Biochem. J. 331:69. Enzymatic reactions were initiated by incubating a 200 μl aliquot of the tissue homogenate with 20 μl of 0.4 mM ^14C-labeled benzylamine substrate (6 mCi/mmol specific activity, Pharmacia) for 30 min at RT. The assay was stopped by addition of 100 μl of 2 M citric acid, the assay volume was extracted with 5 ml toluene:ethyl acetate (1:1) containing 0.6% (w/v) 2,5-diphenyloxdazole (PPO), and an aliquot of the organic layer was counted by liquid scintillation. […] These inhibitors were added to the tissue supernatant prior to addition of benzylamine.

[2] = tested on: collagen-induced arthritis (CIA) in mice; test: Antibody-mediated collagen-induced arthritis in mice; type: in vivo; conditions: 20 mg/kg i.p. twice daily
Procedure: The murine CIA model used in this study is called antibody-mediated CIA, and can be induced by i.v. injection of a combination of different anti-type II collagen monoclonal antibodies (Terato K., et al. (1995). Autoimmunity. 22:137).
In this example, arthrogen-collagen-induced arthritis antibody kits were purchased from Chemicon International (Temecula, Calif.) and arthritis was induced using the manufacturer's protocol. Mice were injected i.v. with a cocktail of 4 anti-collagen Type II monoclonal antibodies (0.5 mg each) on day 0, followed by i.p. injection of 25 μg lipopolysaccharide (LPS) on day 2. Mice develop swollen wrists, ankles, and digits 3-4 days after LPS injection, with disease incidence of 90% by day 7. Severity of arthritis in each limb was scored for 12 days as follows: 0=normal; 1=mild redness, slight swelling of ankle or wrist; 2=moderate redness and swelling of ankle or wrist; 3=severe redness and swelling of some digits, ankle and paw; 4=maximally inflamed limb. Animals were divided in 3 groups of 6 animals: vehicle, methotrexate (MTX)-treated, and compound-treated. Animals in the vehicle group were injected i.p. with phosphate buffer saline (PBS), twice daily for 12 days (starting on day 0). MTX (3 mg/kg) was administered i.p. starting on day 0 and continuing every other day (Mon., Weds., Fri.) for the duration of the experiment.
For each of the two sets of data (arthritis score and paw swelling), a repeated measure analysis was performed to assess the treatment effect.
The relative RT-PCR approach was used. To perform this experiment, a kit from Ambion (USA) was used that employs 18S ribosomal RNA (rRNA) as an internal control. In addition to the rRNA primers, the kit also provides specific primers for the amplification of the different cytokines to be analyzed. […] At the end of the study, animals were euthanized and the right hind paws were extracted and frozen. Total RNA was isolated using 1 ml of Trizol reagent (Invitrogen, USA) per 50-100 mg tissue according to the manufacturer's instructions. […]

[3] = tested on: EAE in C57BL/6 mice; test: Experimental autoimmune encephalomyelitis (EAE), MOG 35-55; type: in vivo; conditions: separate experiment, same protocol, FIG. 3
Procedure: SSAO/VAP-1 is expressed on the endothelium of inflamed tissues/organs including brain and spinal cord. Its ability to support lymphocyte transendothelial migration may be an important systemic function of SSAO/VAP-1 in inflammatory diseases such as multiple sclerosis and Alzheimer's disease. An analysis of the use of SSAO inhibitors to treat inflammatory disease of the central nervous system (CNS) was performed through the use of an experimental autoimmune encephalomyelitis model (EAE) in C57BL/6 mice. EAE in rodents is a well-characterized and reproducible animal model of multiple sclerosis in human (Benson J. M. et al. (2000) J. Clin. Invest. 106:1031). Multiple sclerosis is a chronic immune-mediated disease of the CNS characterized by pachy perivenular inflammatory infiltrates in areas of demyelination and axonal loss. As an animal model, EAE can be induced in mice by immunization with encephalitogenic myelin antigens in the presence of adjuvant. The pathogenesis of EAE comprises presentation of myelin antigens to T cells, migration of activated T cells to the CNS, and development of inflammation and/or demyelination upon recognition of the same antigens.
Thirty female C57BL/6 mice were immunized subcutaneously (s.c). with myelin oligodendrocyte glycoprotein 35-55 (MOG peptide 35-55) in Complete Freund Adjuvant (CFA) on day 0, followed by i.p. injections of pertussis toxin (one pertussis toxin injection on day 0, a second pertussis toxin injection on day 2). Groups of 10 mice received either the allylamine compound mofegiline (AA, 10 mg/kg/dose, twice daily for 18 consecutive days), methotrexate (2.5 mg/kg/day, every other day (Mon., Weds., Fri.) till day 18) or vehicle control (twice/day for 18 consecutive days) all-starting from one day after the immunization and all administered i.p. Then animals were monitored for body weight, signs of paralysis and death according to a 0-5 scale of scoring system as follows: 1=limp tail or waddling gait with tail tonicity; 2=waddling gait with limp tail (ataxia); 2.5=ataxia with partial limb paralysis; 3=full paralysis of one limb; 3.5=full paralysis of one limb with partial paralysis of second limb; 4=full paralysis of two limbs; 4.5=moribund; 5=death. Results are shown in FIG. 2A, FIG. 2B, and FIG. 2C. […] (p=0.04 by repeated measure analysis to assess the treatment effect. Proper polynomial transformation, with the spacing corresponding to the collection days, was applied to test the time effect). Statistically significant differences in diseases severity between the AA and vehicle-treated groups, continued even after stopping compound administration and were observed until the end of the study (d25) .

Row | SMILES | ED50, in vivo inhibition of SSAO activity in aorta ([1]; rat aorta) [mg/kg] | ED50, in vivo inhibition of SSAO activity in lung ([1]; rat lung) [mg/kg] | final arthritis score ([2]; day 0-11, p=0.0046 vs PBS) | paw swelling ([2]; day 0-11, p=0.0060 vs PBS) | levels of TNFα mRNA in the paws (relative RT-PCR, TNFα:18S rRNA) ([2]; right hind paws at end of study) | development and severity of disease [3]
1 | C=C(CNN)c1ccc(F)cc1.Cl [Example 8, N-[2-(4′-fluorophenyl)-allyl]-hydrazine Hydrochloride] | 5 | 0.72 | – | – | – | –
2 | C=C(CNN)c1ccccc1 [Example 2, Hydrochloride] | – | – | clearly reduced | clearly reduced | able to reduce | clearly had a therapeutic effect
